Measurements from patent publication US8247211B2, “Glycopeptide antibiotics” (American Cyanamid Company, priority 2001, dated 2012).

What was measured:
[1] = system: Streptococcus sp.; experiment: In vitro antibacterial evaluation: minimum inhibitory concentration (MIC), broth dilution method; format: cell-based; conditions: broth dilution, 5×10^5 CFU/mL, 18 hours at 35° C.
In short: (§1)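 Broth dilution per NCCLS M7-A2 in Muller-Hinton II […], inoculum 5×10^5 CFU/mL, antibiotic tested over 64-0.06 μg/mL. MIC is taken as the lowest concentration that inhibits growth. Panel includes recent clinical isolates resistant to methicillin, penicillin and/or vancomycin.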

[2] = system: Escherichia coli; experiment: as above; format: cell-based; conditions: 5×10^5 CFU/mL, 18 hours at 35° C.
In short: as §1

[3] = system: Enterococcus sp.; experiment: as above; format: cell-based; conditions: broth dilution, 5×10^5 CFU/mL, 18 hours at 35° C.
In short: as §1

[4] = system: Staphylococcus sp.; experiment: as above; format: cell-based; conditions: for MIC Staphylococcus aureus (ATCC 29213): strain ATCC 29213; for MIC Staphylococcus aureus (GC 1131): strain GC 1131; for MIC Staphylococcus aureus (GC 3051): strain GC 3051; for MIC Staphylococcus aureus (GC 3053): strain GC 3053; for MIC Staphylococcus aureus (GC 4541): strain GC 4541; for MIC Staphylococcus aureus (GC 4542): strain GC 4542; for MIC Staphylococcus aureus (GC 4544): strain GC 4544; for MIC Staphylococcus aureus (GC 4545): strain GC 4545
In short: as §1

[5] = system: Enterococcus faecalis (GC 6189), vancomycin resistant strain; experiment: Acute lethal infection in mice (ED50); format: in vivo; conditions: female CD-1 mice, intraperitoneal challenge, intravenous dose 30 min. after infection, 7 day survival ratios
In short: (§2)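 Bacteria suspended in Trypticase Soy Broth or hog gastric mucin are injected intraperitoneally into female CD-1 mice at a dose killing untreated animals within 24-48 hr. Thirty minutes later, test agent is administered intravenously. Survival at day 7 is scored.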

[6] = system: Staphylococcus aureus-SMITH (GC 4543); experiment: Acute lethal infection in mice (ED50); format: in vivo; conditions: female CD-1 mice, intraperitoneal challenge, intravenous dose 30 min. after infection, 7 day survival ratios
In short: as §2

[7] = format: in vivo; conditions: mice, 20 mg/kg intravenously daily for 9 days, serum on day 10
Method: 20-day-old CD-1 mice were divided into a vehicle control group (5 mice) and a treatment group (5 mice). Samples of glycopeptide antibiotics were administered at 20 mg/kg intravenously daily for 9 days. Animals were necropsied on day 10 Sera were analyzed for BUN (blood urea nitrogen), creatinine, AST (aspartic aminotransferase), and ALT (alanine aminotransferase) by routine, standard, automated methods using an Hitachi 747 chemistry analyzer.

[8] = Anatomic pathology (heart and kidney histopathology) in mice; format: in vivo, CD-1 mice; conditions: 20 mg/kg intravenously daily for 9 days, microscopic histopathology on day 10
In short: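 Histopathology on H&E-stained, paraffin-embedded sections, subjectively scored (slight, mild, moderate, marked, severe) relative to untreated controls. Dosing: glycopeptide antibiotics 20 mg/kg intravenously once daily ×9 days in 20-day-old CD-1 mice, n=5 per group including vehicle.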

[9] = system: Staphylococcus aureus; experiment: Zone of inhibition, assay plate Staphylococcus aureus; format: cell-based; conditions: 25 μl of extract per 5 mm well, Nutrient Agar pH 6.8, incubated overnight at 37° C.
Method: Inoculate 10 mL of Tryptic Soy Broth with a loopful of slant culture, Staphylococcus aureus, and place in a stationary rack at 37° C. After 16-18 hour incubation, the Optical Density (OD) of the culture is read @ A600 nm, using a 1:10 dilution. OD should be between 0.1-0.3, and if not adjust with Tryptic Soy Broth. A 40 mL sample of Nutrient Agar, pH 6.8 is inoculated with 90 μl of S. aureus culture and poured into a sterile petri dish. When the agar has solidified, wells (5 mm) are plated using an automated welling device. Wells are inoculated with 25 μl of extract and incubated overnight at 37° C. Zones of inhibition are measured and recorded the following morning.

[10] = strain GC 4543, broth dilution, 18 hours at 35° C.
[11] = strain GC 4546, broth dilution, 18 hours at 35° C.
[12] = strain GC 4547, broth dilution, 18 hours at 35° C.
[13] = strain GC 4548, broth dilution, 18 hours at 35° C.
[14] = strain GC 4549, broth dilution, 18 hours at 35° C.
[15] = strain GC 4551, broth dilution, 18 hours at 35° C.
[16] = strain GC 6257, broth dilution, 18 hours at 35° C.
[17] = broth dilution, 5×10^5 CFU/mL, 18 hours at 35° C.
[18] = broth dilution, 18 hours at 35° C.

CC(c1ccccc1)C1NC(=O)CNC(=O)C(CO)NC(=O)C(C(O)C2CNC(=N)N2C2OC(CO)C(O)C(O)C2O)NC(=O)C(C(O)C2CNC(=N)N2)NC(=O)C(Cc2ccc(OC3OC(CO)C(OC4OC5COC(Cc6ccccc6)OC5C(O)C4O)C(O)C3O)cc2)NC1=O (stereo not drawn) [Example 102, Cyclo[glycyl-β-methylphenylalanyl-O-[4-O-(4,6-O-phenethylidenehexopyranosyl)-hexopyranosyl]tyrosyl-3-(2-iminoimidazoliclin-4-yl)seryl-3-(3-hexopyranosyl-2-iminoimidazolidin-4-yl)serylseryl]]
0.5 to 1 µg/mL: MIC Escherichia coli (GC 4560) [2] | MIC Staphylococcus aureus (GC 4542) [4] | MIC Staphylococcus aureus-SMITH (GC 4543) ([4]; strain GC 4543, 18 hours at 35° C.) | MIC Staphylococcus aureus-SMITH (GC 4543) [4, 10] | MIC Staphylococcus aureus (GC 4545) [4] | MIC Staphylococcus haemolyticus (GC 4546) ([4]; strain GC 4546) | MIC Staphylococcus haemolyticus (GC 4546) [4, 11] | MIC Coagulase Negative Staphylococcus (GC 4548) ([4]; strain GC 4548) | MIC Coagulase Negative Staphylococcus (GC 4548) [4, 13] | MIC Coagulase Negative Staphylococcus (GC 4549) ([4]; strain GC 4549) | MIC Coagulase Negative Staphylococcus (GC 4549) [4, 14]
<0.06 µg/mL: MIC Streptococcus pneumoniae (GC 1894) [1] | MIC Streptococcus pneumonine (ATCC 6301) [1]
0.23-0.43: median effective dose (ED50), Staphylococcus aureus-SMITH (GC 4543) [6]
2 to 4 µg/mL: MIC Enterococccus avium (GC 4558) [3] | MIC Enterococccus faecalis (ATCC 29212) [3] | MIC Enterococccus faecalis (GC 2691) [3] | MIC Enterococccus faecalis (GC 3059) [3] | MIC Enterococccus faecalis (GC 4552) [3] | MIC Enterococccus faecalis (GC 4553) [3] | MIC Enterococccus faecalis (GC 4554) [3] | MIC Enterococccus faecalis (GC 6189) [3] | MIC Enterococccus faecium (GC 2243) [3] | MIC Enterococccus faecium (GC 4556) [3] | MIC Enterococcus faecalis (GC 2242) [3]
2 µg/mL: MIC Staphylococcus aureus (GC 1131) [4]
+340%: Clinical Chemistry (Day 10) % of Control, AST [7]
+100%: Clinical Chemistry (Day 10) % of Control, Creatinine [7]
1 µg/mL: MIC Staphylococcus aureus (GC 3051) [4] | MIC Coagulase Negative Staphylococcus (GC 4547) ([4]; strain GC 4547) | MIC Coagulase Negative Staphylococcus (GC 4547) [4, 12]
0.5 µg/mL: MIC Coagulase Negative Staphylococcus (GC 6257) ([4]; strain GC 6257) | MIC Coagulase Negative Staphylococcus (GC 6257) [4, 16]
+++: Anatomical Pathology (Day 10), Heart [8] | Anatomical Pathology (Day 10), Kidney [8]
1 to 2 µg/mL: MIC Enterococccus faecium (GC 4557) [3] | MIC Staphylococcus aureus (ATCC 29213) [4] | MIC Staphylococcus aureus (GC 3053) [4] | MIC Staphylococcus aureus (GC 4541) [4] | MIC Staphylococcus aureus (GC 4544) [4] | MIC Coagulase Negative Staphylococcus (GC 4551) ([4]; strain GC 4551) | MIC Coagulase Negative Staphylococcus (GC 4551) [4, 15]
1.04 mg/kg: median effective dose (ED50), Enterococcus faecalis (GC 6189) [5]

Cc1cccc(C2OCC3OC(OC4C(CO)OC(Oc5ccc(CC6NC(=O)C(C(C)c7ccccc7)NC(=O)CNC(=O)C(CO)NC(=O)C(C(O)C7CNC(=N)N7C7OC(CO)C(O)C(O)C7O)NC(=O)C(C(O)C7CNC(=N)N7)NC6=O)cc5)C(O)C4O)C(O)C(O)C3O2)c1 (stereo not drawn) [Example 135, Cyclo[glycyl-β-methylphenylalanyl-O-[4-O-[4,6-O-(3-methylbenzylidene)hexopyranosyl]-hexopyranosyl]tyrosyl-3-(2-iminoimidazolidin-4-yl)seryl-3-(3-hexopyranosyl-2-iminoimidazolidin-4-yl)serylseryl]]
0.26 mg/kg: median effective dose (ED50), Enterococcus faecalis (GC 6189) [5]
0.07 mg/kg: median effective dose (ED50), Staphylococcus aureus-SMITH (GC 4543) [6]
1 µg/mL: MIC Coagulase Negative Staphylococcus (GC 4547) [4, 17] | MIC Coagulase Negative Staphylococcus (GC 4551) [4, 17] | MIC Staphylococcus aureus-SMITH (GC 4543) [4, 17] | MIC Staphylococcus aureus (ATCC 29213) [4] | MIC Staphylococcus aureus (ATCC 29213) [4, 18] | MIC Staphylococcus aureus (GC 1131) [4] | MIC Staphylococcus aureus (GC 1131) [4, 18] | MIC Staphylococcus aureus (GC 3051) [4] | MIC Staphylococcus aureus (GC 3051) [4, 18] | MIC Staphylococcus aureus (GC 3053) [4] | MIC Staphylococcus aureus (GC 3053) [4, 18] | MIC Staphylococcus aureus (GC 4541) [4] | MIC Staphylococcus aureus (GC 4541) [4, 18] | MIC Staphylococcus aureus (GC 4542) [4] | MIC Staphylococcus aureus (GC 4542) [4, 18] | MIC Staphylococcus aureus-SMITH (GC 4543) [4, 10] | MIC Staphylococcus aureus (GC 4545) [4] | MIC Staphylococcus aureus (GC 4545) [4, 18] | MIC Coagulase Negative Staphylococcus (GC 4547) [4, 12] | MIC Coagulase Negative Staphylococcus (GC 4551) [4, 15]
0.5 µg/mL: MIC Escherichia coli (GC 4560) [2] | MIC Coagulase Negative Staphylococcus (GC 4548) [4, 17] | MIC Coagulase Negative Staphylococcus (GC 4549) [4, 17] | MIC Coagulase Negative Staphylococcus (GC 6257) [4, 17] | MIC Staphylococcus haemolyticus (GC 4546) [4, 17] | MIC Staphylococcus haemolyticus (GC 4546) [4, 11] | MIC Coagulase Negative Staphylococcus (GC 4548) [4, 13] | MIC Coagulase Negative Staphylococcus (GC 4549) [4, 14] | MIC Coagulase Negative Staphylococcus (GC 6257) [4, 16]
32 µg/mL: MIC Escherichia coli (ATCC 25922) [2] | MIC Escherichia coli (GC 4559) [2]
2 µg/mL: MIC Enterococccus avium (GC 4558) [3] | MIC Enterococccus faecalis (ATCC 29212) [3] | MIC Enterococccus faecalis (GC 2691) [3] | MIC Enterococccus faecalis (GC 3059) [3] | MIC Enterococccus faecalis (GC 4552) [3] | MIC Enterococccus faecalis (GC 4553) [3] | MIC Enterococccus faecalis (GC 4554) [3] | MIC Enterococccus faecalis (GC 6189) [3] | MIC Enterococccus faecium (GC 2243) [3] | MIC Enterococccus faecium (GC 4556) [3] | MIC Enterococccus faecium (GC 4557) [3] | MIC Enterococcus faecalis (GC 2242) [3] | MIC Staphylococcus aureus (GC 4544) [4] | MIC Staphylococcus aureus (GC 4544) [4, 18]
<0.06 µg/mL: MIC Streptococcus pneumoniae (GC 1894) [1] | MIC Streptococcus pneumoniae (GC 4565) [1] | MIC Streptococcus pneumonine (ATCC 6301) [1]
0.25 µg/mL: MIC Streptococcus agalactiae (GC 4564) [1] | MIC Streptococcus pyogenes (GC 4563) [1]

CC(C)CCC(=O)OC1C(CO)OC(OC2C(CO)OC(Oc3ccc(CC4NC(=O)C(C(C)c5ccccc5)NC(=O)CNC(=O)C(CO)NC(=O)C(C(O)C5CNC(=N)N5C5OC(CO)C(O)C(O)C5O)NC(=O)C(C(O)C5CNC(=N)N5)NC4=O)cc3)C(O)C2O)C(O)C1O (stereo not drawn) [Example 270c, Cyclo[glycyl-β-methylphenylalanyl-O-[4-O-[4-O-(4-methylpentanoyl)hexopyranosyl]-hexopyranosyl]tyrosyl-3-(2-iminoimidazolidin-4-yl)seryl-3-(3-hexopyranosyl-2-iminoimidazolidin-4-yl)serylseryl]]
11 mm: Zone of Inhibition vs. S. aureus [9]

CCC(C)CC(=O)OC1C(CO)OC(OC2C(CO)OC(Oc3ccc(CC4NC(=O)C(C(C)c5ccccc5)NC(=O)CNC(=O)C(CO)NC(=O)C(C(O)C5CNC(=N)N5C5OC(CO)C(O)C(O)C5O)NC(=O)C(C(O)C5CNC(=N)N5)NC4=O)cc3)C(O)C2O)C(O)C1O (stereo not drawn) [Example 271c, Cyclo[glycyl-β-methylphenylalanyl-O-[4-O-[4-O-(3-methylpentanoyl)hexopyranosyl]-hexopyranosyl]tyrosyl-3-(2-iminoimidazolidin-4-yl)seryl-3-(3-hexopyranosyl-2-iminoimidazolidin-4-yl)serylseryl]]
12 mm: Zone of Inhibition vs. S. aureus [9]
